Test results: PubChem BioAssay AID624167 (Sanford-Burnham Center for Chemical Genomics, 2012)
Active and inactive are the calls of the source.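 Rule for the calls: active = mean IC50 for reducing PEG3 promoter reporter signal at or below a set limit, with IC50 above the limit in both counter screens; inactive = the rest, including counter screen hits.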

Tests used:
GAPDH = assay: Peg3 promoter luciferase inhibitors, potency, dose response, cell-based, HeLa, CREF/GAPDH counter-screen panel (AID 624167); details: CREF/GAPDH counter-screens
Rat fibroblasts (CREF) = assay: as above; details: CREF/GAPDH counter-screens
PEG-3 [1] = molecular target: PEG-3 (UniProt Q6IN02); assay: as above; details: HeLa PEG-Prom luciferase reporter, overnight, CREF/GAPDH counter-screens, mean of runs
[2] = as above; details: CREF/GAPDH counter-screens; GAPDH; mean of runs
PEG-3 [3] = assay: as above; details: HeLa PEG-Prom luciferase reporter, overnight, CREF/GAPDH counter-screens
[4] = run 1, dose range 1, individual replicate IC50 per panel
[5] = run 2, dose range 1, individual replicate IC50 per panel

PEG-3 (UniProt Q6IN02), sequence (Q6IN02 whole entry, looked up): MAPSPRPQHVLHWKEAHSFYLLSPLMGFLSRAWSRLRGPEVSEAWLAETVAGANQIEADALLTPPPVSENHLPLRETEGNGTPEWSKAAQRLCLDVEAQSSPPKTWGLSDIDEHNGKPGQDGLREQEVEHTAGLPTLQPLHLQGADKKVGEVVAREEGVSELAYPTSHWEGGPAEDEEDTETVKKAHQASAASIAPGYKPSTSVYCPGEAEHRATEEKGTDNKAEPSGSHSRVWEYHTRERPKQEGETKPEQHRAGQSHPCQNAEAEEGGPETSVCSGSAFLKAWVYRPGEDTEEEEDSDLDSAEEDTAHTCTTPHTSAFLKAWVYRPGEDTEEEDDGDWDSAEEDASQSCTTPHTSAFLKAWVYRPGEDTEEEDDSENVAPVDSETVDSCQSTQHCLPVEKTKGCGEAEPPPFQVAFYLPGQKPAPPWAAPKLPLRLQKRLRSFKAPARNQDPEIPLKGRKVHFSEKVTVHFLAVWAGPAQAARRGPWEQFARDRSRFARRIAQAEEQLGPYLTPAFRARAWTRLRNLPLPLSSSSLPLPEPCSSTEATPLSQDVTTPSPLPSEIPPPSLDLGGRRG

SMILES | IC50 (GAPDH; [4]) | IC50 (GAPDH; [5]) | IC50 (Rat fibroblasts (CREF); mean of runs) | IC50 (Rat fibroblasts (CREF); [4]) | IC50 (Rat fibroblasts (CREF); [5]) | IC50 (PEG-3 [1]) | IC50 [2] | IC50 (PEG-3 [3]; [4]) | IC50 (PEG-3 [3]; [5])
O=C(O)c1ccc(N/N=C/c2ccc3nccnc3c2)cc1 | 1.36 µM | 1.41 µM | > 100 µM (inactive) | > 100 µM | > 100 µM | 1.31 µM | 1.38 µM | 1.26 µM | 1.36 µM
CCC(=O)NC(c1ccc(C)cc1)c1ccc2cccnc2c1O (stereo not given) | 46.6 µM | > 100 µM | > 100 µM (inactive) | > 100 µM | > 100 µM | inactive | inactive | 1.31 µM | > 100 µM
CCC(C)Cn1c(O)cc2nn(-c3nc4ccccc4s3)c(=O)c-2c1C (stereo not given) | 3.06 µM | 2.52 µM | 65.6 µM (inactive) | 72.2 µM | 58.9 µM | 3 µM | 2.79 µM | 5.8 µM | < 0.2 µM
CCCC(=O)NC(c1ccc(OC)cc1)c1ccc2cccnc2c1O (stereo not given) | 57.7 µM | 70.4 µM | 50.7 µM (inactive) | > 100 µM | 1.48 µM | 1.74 µM | inactive | 2.76 µM | 0.719 µM
CN=c1sc2c(n1C)C(=O)c1ccccc1C2=O | 29.9 µM | 48.4 µM | 4.98 µM | 4.97 µM | 5 µM | 9.93 µM | inactive | 9.56 µM | 10.3 µM
CC(=O)c1cccc(-c2ccnc3c2CC(C(=O)Nc2cccc(NS(C)(=O)=O)c2)O3)c1 (stereo not given) | > 100 µM | 90.3 µM | > 100 µM (inactive) | > 100 µM | > 100 µM | 5.6 µM | inactive | 6.56 µM | 4.65 µM
COC1CC(C)C(OC)c2cc(O)cc(c2O)NC(=O)C(C)=CC=CC(C)C(OC(N)=O)C(C)=CC(C)C1OC (stereo not given) | 45.1 µM | 45.7 µM | > 100 µM (inactive) | > 100 µM | > 100 µM | 13.8 µM | inactive | 22.2 µM | 5.41 µM
COc1ccc(C(NC(=O)C(C)C)c2ccc3cccnc3c2O)cc1 (stereo not given) | > 100 µM | > 100 µM | 23.3 µM | 12.3 µM | 34.3 µM | 4.7 µM | > 100 µM (inactive) | 3.71 µM | 5.68 µM
COc1ccc(C(NC(C)=O)c2ccc3cccnc3c2O)c(OC)c1 (stereo not given) | > 100 µM | > 100 µM | 51.8 µM (inactive) | 3.55 µM | > 100 µM | 5.33 µM | > 100 µM (inactive) | 3.68 µM | 6.97 µM
O=C(N/N=C/c1cc([N+](=O)[O-])ccc1O)c1ccc(COc2ccc3c(c2)CCC3)o1 | > 100 µM | > 100 µM | 76.8 µM (inactive) | > 100 µM | 53.7 µM | 9.2 µM | > 100 µM (inactive) | 7.48 µM | 10.9 µM
O=C(CSC1c2ccccc2-c2ccccc21)N/N=C/c1ccccc1O | > 100 µM | > 100 µM | 69.5 µM (inactive) | > 100 µM | 38.9 µM | inactive | > 100 µM (inactive) | 3.04 µM | > 100 µM
CC(C)(C)c1ccc(Oc2ccc(N)cc2)cc1 | 0.457 µM | 2.43 µM | 74.7 µM (inactive) | 74.7 µM | > 100 µM | 4.49 µM | 1.44 µM | 4.88 µM | 4.1 µM
CC(C)CCCCCCCCCCCCC(=O)NCC(=O)NC1C(O)C(O)C(Nc2ncnc3nc[nH]c23)OC1C(O)CO (stereo not given) | < 0.2 µM | < 0.2 µM | 50.1 µM (inactive) | < 0.2 µM | > 100 µM | 1.82 µM | < 0.2 µM | 3.44 µM | < 0.2 µM
O=c1c2ccccc2sc2nc(CCl)nn12 | 11.9 µM | 10.6 µM | > 100 µM (inactive) | > 100 µM | > 100 µM | 9.36 µM | 11.2 µM | 9.23 µM | 9.49 µM
CCc1ccc(/C=C2\SC(=S)N(CCCC(=O)Nc3cc(C)on3)C2=O)cc1 | 7.4 µM | 10.9 µM | > 100 µM (inactive) | > 100 µM | > 100 µM | 3.46 µM | 9.14 µM | 3.86 µM | 3.05 µM
